Measured values taken from US20230159593A1, “CY[…]” (priority 2020, published 2023).
Where two headings read alike, the source gives them in different places.

Tests used:
HCV replication (SGR) = experiment: microbe, parasite or virus in culture; format: cell-based; settings: Hepatitis C virus
HCVcc (J6/JFH1-RLuc) = experiment: microbe, parasite or virus in culture; format: cell-based, Hepatitis C Virus; settings: for IC50: Hepatitis C virus; for Effect on HCVcc infection at single dose: 72 h
HIV-1 (GFP) = experiment: Infection of U87 cells with HIV-1 (GFP), titration of inhibitors; format: cell-based; settings: for IC50: Human immunodeficiency virus 1, U-87 MG; for Potency relative to CsA: U87 cells, HIV-1 (GFP)
Description: FIG. 27: As explained in Example 3, this figure illustrates: in panel A, infection of U87 cells with HIV-1 (GFP), with a titration of inhibitors from 10 μm-0.04 μM (n=2±SEM), the vertical axis in each graph representing infectivity as a % of DMSO control; in panel B, Western blot of CypA in Huh7 cells 48 hrs after treatment with and without JW4-10.
Also used as a control in the experiments (see FIG. 27A) was SmBz ([Sarcosine-3(4-methylbenzoate)]-CsA). SmBz is disclosed in Malouitre et al. Biochem J. 2009 Dec. 14; 425(1):137-48. The anti HIV activity of SmBz is described in Rasaiyaah et al. Nature, 2013. 503(7476): p. 402-5.

CypA = target: T1, CypA (Homo sapiens, UniProt P62937); format: cell-based
T1 construct: endogenous in cells; host or cells: Huh7 and Huh7.5 cells
T1 sequence (P62937 whole entry): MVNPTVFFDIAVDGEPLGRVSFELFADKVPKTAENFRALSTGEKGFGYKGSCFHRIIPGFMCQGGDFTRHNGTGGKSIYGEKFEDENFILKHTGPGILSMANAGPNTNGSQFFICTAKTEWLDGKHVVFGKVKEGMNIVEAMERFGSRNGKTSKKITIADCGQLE

CypB = target: T2, CypB (Homo sapiens, UniProt P23284); format: cell-based; settings: Huh7 cells, 1 μM
T2 construct: endogenous in cells; host or cells: Huh7 cells
T2 sequence (P23284 34-216): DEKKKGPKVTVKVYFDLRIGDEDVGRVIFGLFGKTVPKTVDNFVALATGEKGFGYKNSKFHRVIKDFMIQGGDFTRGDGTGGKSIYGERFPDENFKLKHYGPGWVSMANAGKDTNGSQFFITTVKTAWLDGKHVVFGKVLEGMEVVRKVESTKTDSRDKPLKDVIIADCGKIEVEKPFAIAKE

CypD = target: T3, CypD (Homo sapiens, UniProt P30405); format: cell-based; settings: Huh7 cells, 1 μM, 24 hours
T3 construct: endogenous in cells; host or cells: Huh7 cells
T3 sequence (P30405 30-207): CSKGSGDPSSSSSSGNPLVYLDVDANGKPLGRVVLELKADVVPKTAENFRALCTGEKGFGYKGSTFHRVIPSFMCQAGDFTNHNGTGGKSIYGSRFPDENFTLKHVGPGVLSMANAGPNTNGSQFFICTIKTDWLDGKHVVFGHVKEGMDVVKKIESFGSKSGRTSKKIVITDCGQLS

IFN-β mRNA = format: cell-based, Homo sapiens; settings: HCV-replicating Huh7 cells, 5 μM, 48 h
[1] = test system: HCV replication organelle (DMVs); format: cell-based, Homo sapiens; settings: 5×EC90, 24 hours post-transfection
IRF1 target genes = format: cell-based, Homo sapiens; settings: HCV-replicating Huh7 cells, 5 μM, 48 hpe
[2] = Huh7.5, Huh7.5, read-out: IC50 Replication (SGR)
[3] = Huh7.5-CTRL, read-out: IC50 Replication (SGR)
[4] = Huh-7, Huh7, read-out: IC50 Replication (SGR)
[5] = Huh-7, Huh7 MAVS KO, read-out: IC50 Replication (SGR)
[6] = Huh-7, Huh7 NT c7, read-out: IC50 Replication (SGR)
[7] = Huh-7, read-out: IC50 Replication (SGR), Huh7 MAVS KO + C508R
[8] = Huh7.5, read-out: IC50 HCVcc infection, Huh7.5
[9] = Huh-7, read-out: IC50 HCVcc infection, Huh7 NT c7

CC[C@@H]1NC(=O)[C@H]([C@H](O)[C@H](C)C/C=C/CCCCC(=O)N[C@H](C(=O)N2C[C@H](O)C[C@H]2C(=O)N[C@@H](C)c2ccc(-c3scnc3C)cc2)C(C)(C)C)N(C)C(=O)[C@H](C(C)C)N(C)C(=O)[C@H](CC(C)C)N(C)C(=O)[C@H](CC(C)C)N(C)C(=O)[C@@H](C)NC(=O)[C@H](C)NC(=O)[C@H](CC(C)C)N(C)C(=O)[C@H](C(C)C)NC(=O)[C@H](CC(C)C)N(C)C(=O)CN(C)C1=O [CsA-Prtc1, [Gly-(1S,2R,E)-10-amido (E3 ligase ligand)-1-hydroxy-2-methyloct-4-ene]^1 CsA]
IC50 (HCV replication (SGR); [2]): 55 ± 7 nM | IC50 (HCV replication (SGR); [3]): 70 ± 13 nM | IC50 (HCV replication (SGR); [4]): 16 ± 2 nM | IC50 (HCV replication (SGR); [5]): 10 ± 1 nM | IC50 (HCV replication (SGR); [6]): 9 ± 1 nM | IC50 (HCV replication (SGR); [7]): 8 ± 1 nM | IC50 (HCVcc (J6/JFH1-RLuc); [8]): 14 ± 3 nM | IC50 (HCVcc (J6/JFH1-RLuc); Huh-7, read-out: IC50 HCVcc infection, Huh7): 3 ± 1 nM | IC50 (HCVcc (J6/JFH1-RLuc); [9]): 12 ± 2 nM | Effect on HCVcc infection at single dose (HCVcc (J6/JFH1-RLuc); Huh7, 1 μM): completely inhibited HCVcc infection | Effect on HCVcc infection at single dose (HCVcc (J6/JFH1-RLuc); Huh7.5, 1 μM): completely inhibited HCVcc infection | IC50 (HIV-1 (GFP)): 90 ± 130 nM | Proteasome dependence of CypA degradation (CypA; 1 μM with or without MG132 (10 μM), 24 hours): proteasome-dependent | CypA degradation (CypA; Huh7 and Huh7.5 cells, 1 μM, 48 h): degradation of CypA | CypA degradation (CypA; Huh7 cells, 48 hrs after treatment (FIG. 27B)): degradation of CypA | CypB protein expression (CypB; 24 hours): minimal impact | CypB protein expression (CypB; 48 hours): CypB degradation was observed | CypD protein expression (CypD): minimal impact | Induction of IFN-β expression (IFN-β mRNA): not | Number and size of DMVs [1]: significant reduction in the number and size of DMVs | Induction of IRF1 target gene expression (IRF1 target genes): did not induce expression of IRF1 target genes

CC[C@@H]1NC(=O)[C@H]([C@H](O)[C@H](C)C/C=C/CCCn2ccnc2)N(C)C(=O)[C@H](C(C)C)N(C)C(=O)[C@H](CC(C)C)N(C)C(=O)[C@H](CC(C)C)N(C)C(=O)[C@@H](C)NC(=O)[C@H](C)NC(=O)[C@H](CC(C)C)N(C)C(=O)[C@H](C(C)C)NC(=O)[C@H](CC(C)C)N(C)C(=O)CN(C)C1=O [CsA-like, [Gly-(1S,2R,E)-8-(1H-imidazole-1-yl)-1-hydroxy-2-methyloct-4-ene]^1 CsA]
IC50 (HCV replication (SGR); [2]): 1370 ± 197 nM | IC50 (HCV replication (SGR); [3]): 527 ± 154 nM | IC50 (HCV replication (SGR); Huh7.5-Mda5, read-out: IC50 Replication (SGR)): 950 ± 247 nM | IC50 (HCV replication (SGR); Huh7.5-RIG-I/Mda5, read-out: IC50 Replication (SGR)): 1230 ± 298 nM | IC50 (HCV replication (SGR); Huh7.5-RIG-I, read-out: IC50 Replication (SGR)): 686 ± 181 nM | IC50 (HCV replication (SGR); [4]): 266 ± 37 nM | IC50 (HCV replication (SGR); Huh-7, Huh7 IRF1 KO c10, read-out: IC50 Replication (SGR)): 1220 ± 224 nM | IC50 (HCV replication (SGR); Huh-7, Huh7 IRF1 KO c11, read-out: IC50 Replication (SGR)): 1590 ± 284 nM | IC50 (HCV replication (SGR); [5]): 160 ± 23 nM | IC50 (HCV replication (SGR); [6]): 184 ± 26 nM | IC50 (HCV replication (SGR); Huh-7, Huh7 PKR KO c1, read-out: IC50 Replication (SGR)): 971 ± 186 nM | IC50 (HCV replication (SGR); Huh-7, Huh7 PKR KO c4, read-out: IC50 Replication (SGR)): 1250 ± 327 nM | IC50 (HCV replication (SGR); [7]): 141 ± 28 nM | IC50 (HCVcc (J6/JFH1-RLuc); [8]): 316 ± 83 nM | IC50 (HCVcc (J6/JFH1-RLuc); [9]): 123 ± 23 nM | IC50 (HCVcc (J6/JFH1-RLuc); Huh-7, read-out: IC50 HCVcc infection, Huh7 PKR KO c4): 433 ± 101 nM | Induction of IFN-β expression (IFN-β mRNA): capable of inducing IFN-β expression

CC[C@@H]1NC(=O)[C@H]([C@H](O)[C@H](C)C/C=C/CCOCCOCCOCCN[C@H](C(=O)N2C[C@H](O)C[C@H]2C(=O)N[C@@H](C)c2ccc(-c3scnc3C)cc2)C(C)(C)C)N(C)C(=O)[C@H](C(C)C)N(C)C(=O)[C@H](CC(C)C)N(C)C(=O)[C@H](CC(C)C)N(C)C(=O)[C@@H](C)NC(=O)[C@H](C)NC(=O)[C@H](CC(C)C)N(C)C(=O)[C@H](C(C)C)NC(=O)[C@H](CC(C)C)N(C)C(=O)CN(C)C1=O [JW4-20]
IC50 (HIV-1 (GFP)): 120 ± 50 nM | Potency relative to CsA (HIV-1 (GFP)): increased potency

CC[C@@H]1NC(=O)[C@H]([C@H](O)[C@H](C)C/C=C/CCCN2CCN(CC(=O)N[C@H](C(=O)N3C[C@H](O)C[C@H]3C(=O)N[C@@H](C)c3ccc(-c4scnc4C)cc3)C(C)(C)C)CC2)N(C)C(=O)[C@H](C(C)C)N(C)C(=O)[C@H](CC(C)C)N(C)C(=O)[C@H](CC(C)C)N(C)C(=O)[C@@H](C)NC(=O)[C@H](C)NC(=O)[C@H](CC(C)C)N(C)C(=O)[C@H](C(C)C)NC(=O)[C@H](CC(C)C)N(C)C(=O)CN(C)C1=O [JW4-21]
IC50 (HIV-1 (GFP)): 700 ± 80 nM | Potency relative to CsA (HIV-1 (GFP)): decreased potency
